Laboratory results taken from US9211296B2, “Therapeutic compounds for blocking DNA synthesis of POX viruses” (priority 2007, dated 2015).

target: vaccinia virus DNA synthesis (viral DNA polymerase and its associated factors) (Vaccinia virus, UniProt P06856); type: biochemical; details: read-out: DNA Synthesis IC50
For Blocking the replication of vaccinia virus in cells in this document: test concentration or dose not given here.

Row | Compound | IC50
1 | CCN(CC)CCCNc1nc2cc(OC)c(OC)cc2c2nc(-c3ccccc3)nn12 | 5.9 µM
2 | CN(C)CC/N=c1\cc(-c2ccccc2)oc2ccc(Cl)cc12 [drawing 93] | 6.7 µM
3 | Cc1cc(NCCN2CCCCC2)c2ccc3ccccc3c2n1 | 6 µM
4 | CN(C)CCc1cc2c(c3c1ccc1ccccc13)OCO2 | 5.4 µM
5 | Cc1ccc2nc(Cl)c3cc(C(=O)N(CCN(C)C)Cc4ccco4)sc3c2c1 | 10 µM
6 | O=C(NCCCN1CCCC1)c1cc2c(Cl)nc3ccccc3c2s1 | 10 µM
7 | CC[n+]1cc(/C=C2\SC=CN2C)c(C)c2cc(OC)c3ccccc3c21 | 3.5 µM
8 | CC1CCCC(C)N1CCNc1nc2ccccc2c2nc(-c3ccccc3)nn12 (stereo not shown) | 7.3 µM
9 | OC(CN1CCNCC1)Cn1c2ccc(Br)cc2c2cc(Br)ccc21 (stereo not shown) | 6.3 µM
10 | COc1ccc2nc(NC(=N)N)nc(C)c2c1 | 7.4 µM
11 | COc1ccc2c(c1)C=C/C(=C\c1sc3ccccc3[n+]1C)N2C | 4 µM
12 | CCOC(=O)c1cnc2c(C)c(C)ccc2c1NCCCN(C)C | 5 µM
13 | CC1=CC(C)(C)N=C(Nc2nc(C)c3cc(C)cc(C)c3n2)N1 | 5.3 µM
14 | O=C(O)c1ccc(CS(=O)(=O)c2ccccc2)o1 | 7.4 µM
15 | CC(C)Nc1ccc(Nc2ccnc3cc4ccccc4cc23)cc1 | 4.1 µM
16 | CCN1CCN(c2ccc(Nc3ccnc4cc5ccccc5cc34)cc2)CC1 | 0.5 µM
17 | BrCc1ccc(-c2noc(-c3ccncc3)n2)cc1 | 1.3 µM

test system: vaccinia virus; type: cell-based; details: not given

Row | Compound | Blocking the replication of vaccinia virus in cells
18 | CN1CCc2c(-c3cccs3)nc(OCc3ccccc3Br)c(C#N)c2C1 [XXXV, 3-(2-bromobenzyloxy)-6-methyl-1-(thiophen-2-yl)-5,6,7,8-tetrahydro-2,6-naphthyridine-4-carbonitrile] | effective in blocking the replication of vaccinia virus in cells
19 | O=S(=O)(c1cc(Cl)ccc1O)c1cc(Cl)ccc1O [XLI, 2,2′-sulfonylbis(4-chlorophenol)] | effective in blocking the replication of vaccinia virus in cells
20 | COC(=O)c1cccc2c1-c1ccccc1/C2=N\O [VIII, (E)-methyl 9-(hydroxyimino)-9H-fluorene-4-carboxylate] | effective in blocking the replication of vaccinia virus in cells
21 | Oc1ccc([Te]CCNCC[Te]c2ccc(O)cc2)cc1 [XLII, 4,4′-(2,2′-azanediylbis(ethane-2,1-diyl)bis(tellanediyl))diphenol] | effective in blocking the replication of vaccinia virus in cells
22 | Cc1c(N=Cc2cc(Br)cc(Br)c2O)cccc1C(=O)O [XV, Benzoic acid, 3-[[(3,5-dibromo-2-hydroxyphenyl)methylene]amino]-2-methyl-(9CI)] | effective in blocking the replication of vaccinia virus in cells
23 | CN(C)c1ccc(-c2cccc(-c3ccc(N(C)C)cc3)[o+]2)cc1 [XXX, 2,6-bis(4-(dimethylamino)phenyl)pyrylium] | effective in blocking the replication of vaccinia virus in cells
24 | COc1ccc(Nc2cc(C(F)(F)F)ccc2Cl)c(C(=O)O)c1 [XXXIV, 2-(2-chloro-5-(trifluoromethyl)phenylamino)-5-methoxybenzoic acid] | effective in blocking the replication of vaccinia virus in cells
25 | COc1ccc(Nc2nc(N3CCN(C)CC3)nc3ccccc23)c(OC)c1 [XXII, 4-Quinazolinamine, N-(2,4-dimethoxyphenyl)-2-(4-methyl-1-piperazinyl)-(9CI)] | effective in blocking the replication of vaccinia virus in cells
26 | CCN1CCCC1CNC(=O)c1ccc2c(c1)sc1nc(-c3cccc(OC)c3)cn12 (stereo not shown) [XVIII, Imidazo[2,1-b]benzothiazole-7-carboxamide, N-(1-ethyl-2-pyrrolidyl)methyl-2-(3-methoxyphenyl)-(9CI)] | effective in blocking the replication of vaccinia virus in cells
27 | Cc1csc2c(N3CCN(C(=O)NC(C)(C)C)CC3)ncnc12 [XIX, N-tert-butyl-4-(7-methylthieno[3,2-d]pyrimidin-4-yl)piperazine-1-carboxamide] | effective in blocking the replication of vaccinia virus in cells
28 | Cc1cc(/N=C/c2cc(Cl)cc(Cl)c2O)no1 [XVI, (E)-2,4-dichloro-6-((5-methylisoxazol-3-ylimino)methyl)phenol] | effective in blocking the replication of vaccinia virus in cells
29 | CCS(=O)(=O)N1CCN=C1SCc1ccc(Cl)cc1Cl [XI, 1H-Imidazole, 2-[[(2,4-dichlorophenyl)methyl]thio]-1-(ethylsulfonyl)-4,5-dihydro-(9CI)] | effective in blocking the replication of vaccinia virus in cells
30 | O=C(Nc1ccccc1C(=O)O)OCC1c2ccccc2-c2ccccc21 [XXI, Benzoic acid, 2-[[(9H-fluoren-9-ylmethoxy)carbonyl]amino]-(9CI)] | effective in blocking the replication of vaccinia virus in cells
31 | [H]/N=C1/SC(=Cc2ccco2)C(=O)N1c1nccs1 [XXXII, (E)-5-(furan-2-ylmethylene)-2-imino-3-(thiazol-2-yl)thiazolidin-4-one] | effective in blocking the replication of vaccinia virus in cells
32 | COc1ccc(-c2cc3ccccn3c2C(=O)c2cccnc2)c(OC)c1 [VII, (2-(2,4-dimethoxyphenyl)indolizin-3-yl)(pyridin-3-yl)methanone] | effective in blocking the replication of vaccinia virus in cells
33 | O=C(C=Cc1ccco1)C=Cc1ccco1 [XXVI, 1,4-Pentadien-3-one, 1,5-di-2-furanyl-(9CI)] | effective in blocking the replication of vaccinia virus in cells
34 | c1ccc2nc3c(nc2c1)c1ccccc1n3CCN1CCOCC1 [X, 6H-Indolo[2,3-b]quinoxaline-6-(2-morpholinoethy)] | effective in blocking the replication of vaccinia virus in cells
35 | CCN1C(=O)/C(=C/C=C/c2ccco2)C(=O)NC1=S [XXXI, (E)-1-ethyl-5-((E)-3-(furan-2-yl)allylidene)-2-thioxodihydropyrimidine-4,6(1H,5H)-dione] | effective in blocking the replication of vaccinia virus in cells
36 | Cc1cc(OC(=O)c2ccco2)nc(SCc2c(Cl)cccc2Cl)n1 [XII, 2-(2,6-dichlorobenzylthio)-6-methylpyrimidin-4-yl furan-2-carboxylate] | effective in blocking the replication of vaccinia virus in cells
37 | CN(C)CC/N=c1\cc(-c2ccccc2)oc2ccc(Cl)cc12 [I, (E)-N-1-(6-chloro-2-phenyl-4H-chromen-4-ylidene)-N2,N2-dimethylethane-1,2-diamine] | effective in blocking the replication of vaccinia virus in cells
38 | CCC/N=c1\cc(-c2ccccc2)oc2ccc(C)cc12 [III, (E)-N-(6-methyl-2-phenyl-4H-chromen-4-ylidene)propan-1-amine] | effective in blocking the replication of vaccinia virus in cells
39 | O=C1CSC(=S)N1/N=C/c1ccc(Cl)c([N+](=O)[O-])c1 [XXXIX, (E)-3-(4-chloro-3-nitrobenzylideneamino)-2-thioxothiazolidin-4-one] | effective in blocking the replication of vaccinia virus in cells
40 | COC(=O)c1c(NC(=O)c2ccc(OC)cc2)sc2c1CCN(C(C)C)C2.Cl [XXVII, Methyl 6-isopropyl-2-(4-methoxyphenylamido)-4,5,6,7-tetrahydrothieno[2,3-c]pyridine-3-carboxylate hydrochloride] | effective in blocking the replication of vaccinia virus in cells
41 | N=C1/C(=C/c2coc3ccccc3c2=O)C(=O)N=C2SC=NN12 [XIII, (Z)-5-imino-6-((4-oxo-4H-chromen-3-yl)methylene)-5H-[1,3,4]thiadiazolo[3,2-a]pyrimidin-7(6H)-one] | effective in blocking the replication of vaccinia virus in cells
42 | CCOC(=O)c1c(NC(=O)/C=C/C(=O)O)sc(C)c1-c1ccccc1 [XXVIII, (E)-4-(3-(ethoxycarbonyl)-5-methyl-4-phenylthiophen-2-ylamino)-4-oxobut-2-enoic acid] | effective in blocking the replication of vaccinia virus in cells
43 | COc1ccc2c(C)nc(N=C(N)N=C(C)c3ccccc3C(=O)O)nc2c1 [XXIII, Benzoic acid, 2-[1-[[amino[(7-methoxy-4-methyl-2-quinazolinyl)imino]methyl]imino]ethyl]-(9CI)] | effective in blocking the replication of vaccinia virus in cells
44 | Cn1cc(C2=C(c3cn(CCCSC(=N)N)c4ccccc34)C(=O)NC2=O)c2ccccc21 [VI, Carbamimidothioic acid, 3-[3-[2,5-dihydro-4-(1-methyl-1H-indol-3-yl)-2,5-dioxo-1H-pyrrol-3-yl]-1H-indol-1-yl]propyl ester (9CI)] | effective in blocking the replication of vaccinia virus in cells
45 | CN(C)CCOC(=O)c1ccc2[nH]c3c(c2c1)CSCC3 [XXIX, Thiopyrano[4,3-b]indole-8-carboxylic acid, 1,3,4,5-tetrahydro-, 2-(dimethylamino)ethyl ester (7CI,8CI,9CI)] | effective in blocking the replication of vaccinia virus in cells
46 | O=C(O)c1ccccc1Nc1cccc(C(F)(F)F)c1 [IV, Flufenamic Acid] | effective in blocking the replication of vaccinia virus in cells
